From patent publication US20110190280A1, “Thiazole And Oxazole Kinase Inhibitors” (priority 2007, published 2011)
Where a name gives a salt, the structure may show the parent alone.

Assays:
Colo205 tumor cells = assay: Cell growth inhibition assay (CellTiter-Glo), Colo205; conditions: Homo sapiens, COLO 205, 72 h, read-out: Activity in Colo205 Tumor Cells;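 further: growth measured via total ATP luminescence (CellTiter-Glo) as a proxy for cell number, inhibition expressed against DMSO-treated control wells, 3-day exposure at 0.2% final DMSO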
Method: (§9) Cell Growth Inhibition Assays Human colon tumor cells (Colo205) were cultured in RPMI (Mediatech 50-020-PB) containing 10% FBS and 1% penicillin-streptomycin. […] Human melanoma cancer cells (A375-F11S) were cultured in RPMI (Mediatech 50-020-PB) containing 10% FBS, 1% sodium pyruvate, and 1% penicillin-streptomycin. Human colon cancer cells (HT-29) were cultured in high glucose DMEM (Mediatech 50-013-PB) containing 10% FBS and 1% penicillin-streptomycin. Human melanoma cancer cells (SK-MEL-3) were cultured in McCoy's 5A (50-025-PB) containing 15% FBS, and 1% penicillin-streptomycin. All cell lines were maintained at 37° C. in a humidified 5% CO2, 95% air incubator.
(§10) The next day, compounds were diluted as follows: For 96-well assays, 13.5 μl of compound in DMSO were diluted using nine (9) serial 1:3 dilutions of 4.5 μl in 9 μl of DMSO. Medium (270 μl/well of RPMI with 10% FBS and 1% penicillin-streptomycin) was added to the plates. Aliquots (7 μl) were added to cells in the final assay giving a final DMSO concentration of 0.2%. For 384-well assays, 15 μl of compound in DMSO were diluted using nine (9) serial 1:3 dilutions of 5 μl in 10 μl of DMSO, followed by a further dilution of 5 μl of compound with 95 μl of medium, of which 2 μl are added to cells in the final assay giving a final DMSO concentration of 0.2%. Cells were incubated at 37° C., 5% CO2 for 3 days.
(§11) Total ATP was measured (as a surrogate estimate of cell number) using CellTiter-Glo® (Promega G7571) reagent. Briefly, plates were removed from the incubator and allowed to equilibrate to room temperature for 30 minutes. CellTiter-Glo® (25 μl or 55 μl for 384-well or 96-well assays, respectively) reagent was added to each well and plates were shaken on an orbital plate shaker for 2 minutes. Plates were incubated without shaking for a further 30 minutes and read on an LJL Analyst GT reader in luminometer mode with an integration time of 0.5 seconds per well. Percent inhibition of cell growth was calculated relative to DMSO vehicle-treated control wells.

SK-MEL-28 tumor cells = assay: Cell growth inhibition assay (CellTiter-Glo), SK-MEL-28; conditions: Homo sapiens, SK-MEL-28, 72 h, read-out: Activity in SK-MEL-28 Tumor Cells;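 further: luminescent total ATP as a proxy for cell number, threefold serial dilutions at 0.2% DMSO, percent growth inhibition versus DMSO vehicle control wells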
A375P tumor cells = assay: Cell growth inhibition assay (CellTiter-Glo), A375P; conditions: Homo sapiens, 72 h, read-out: Activity in A375P Tumor Cells;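 further: total ATP luminescence used as proxy for cell number, serial threefold compound dilutions at 0.2% DMSO, growth inhibition expressed versus DMSO vehicle-treated wells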
B-Raf = B-Raf (Homo sapiens, UniProt P15056); assay: B-Raf Accelerated MEK ATPase assay (BRAMA); assay type: biochemical; conditions: BRAMA enzyme assay; class by pIC50; read-out: B-Raf Activity
Method in brief: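 B-Raf activity read as intrinsic MEK ATPase: catalytic activated RAF with non-phosphorylated MEK drives ADP formation, coupled through pyruvate kinase and lactate dehydrogenase to NADH oxidation, independent of ERK phosphorylation.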

HT-29 tumor cells = assay: Cell growth inhibition assay (CellTiter-Glo), HT-29; conditions: Homo sapiens, HT-29, 72 h, read-out: Activity in HT-29 Tumor Cells;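 further: ATP content read by luminescence as proxy for cell number, growth inhibition versus DMSO vehicle wells, 0.2% DMSO final, nine serial threefold compound dilutions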
ErbB2 = ErbB2 (Homo sapiens, UniProt P04626); assay: ErbB2 kinase autophosphorylation assay (peptide phosphorylation, HTRF); assay type: biochemical; conditions: 10 nM ErbB2, HTRF; class by pIC50
Method: (§1) A selection of compounds of the present invention were tested for inhibitory activity against EGFR and ErbB2 kinases in autophosphorylation assays.
(§2) The method measures the ability of the isolated enzyme to catalyse the transfer of the gamma-phosphate from ATP onto the tyrosine residue of a biotinylated synthetic peptide referenced “Peptide C” in Brignola, P. S., et al, (2002) J. Biol. Chem. 277(2):1576-1585. The extent of tyrosine phosphorylation was measured using an anti-phosphotyrosine antibody, and quantified by homogenous time-resolved fluorescence (HTRF).
(§3) Reactions were performed in black 384-well polystyrene flat-bottom plates in a final volume of 20 ul. Assays were performed by adding 10 μl of each of the following solutions, substrate Mix and enzyme mix: The Substrate mix contained 100 mM 3-[N-morpholino]propanesulfonic acid (MOPS) (pH 7.5), 2 mM MnCl2, 20 μM ATP, 0.01% Tween-20, 0.1 mg/mL (BSA), 0.8 uM peptide substrate, and 1 mM dithiothreitol. The enzyme mix contained 100 mM MOPS (pH7.5); 0.01% Tween-20; 0.1 mg/mL BSA, and either 0.8 nM EGFR, 10 nM ErbB2, or 1 nM ErbB4
(§4) The enzyme mix was added to the compound plates and the plates were incubated at 20° C. for 1 hour. The reactions were allowed to proceed for 90 minutes at 20° C. The reactions were then terminated by the addition of 20 μl 100 mM EDTA to each well. 40 μl/well of HTRF detection mix were added to the assay plates. The final concentrations of the detection reagents were: 100 mM HEPES (pH7.5), 0.1 mg/mL BSA, 15 nM streptavidin-labeled allophycocyanin (PerkinElmer), and 1 nM europium-labeled anti-phosphotyrosine antibody (PerkinElmer). Assay plates were left unsealed and were counted in a Wallac Multilabel Counter 1420 (PerkinElmer).
(§5) Compounds under analysis were dissolved in Me2SO to 1.0 mM and serially diluted 1 to 3 with Me2SO through twelve dilutions. 1 μl of each concentration was transferred to the corresponding well of an assay plate. This creates a final compound concentration range from 0.00027 to 47.6 μM.
(§6) The data for dose responses were plotted as % Inhibition calculated with the data reduction formula 100*(1−(U1−C2)/(C1−C2)) versus concentration of compound where U is the unknown value, C1 is the average control value obtained for 4.76% DMSO, and C2 is the average control value obtained for 0.035 M EDTA. Data were fitted with a curve described by:
(§7) where Vmax is the upper asymptote, Y2 is the Y intercept, and K is the IC50. The results for each compound were recorded as pIC50s, calculated as follows: […]
(§8) In the following table: • “+” indicates no pIC50 measurement greater than 6 against EGFR or ErbB2, • “++” indicates at least one pIC50 measurement greater than 6 against EGFR or ErbB2 but no measurement greater than pIC50 of 7; and • “+++” indicates at least one pIC50 measurement of greater than 7 against EGFR or ErbB2.

SK-MEL-3 tumor cells = assay: Cell growth inhibition assay (CellTiter-Glo), SK-MEL-3; conditions: Homo sapiens, SK-MEL3, 72 h, read-out: Activity in SK-MEL-3 Tumor Cells;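 further: human melanoma cells grown with compound for 3 days in 0.2% DMSO, total ATP read by luminescence as proxy for cell number, growth inhibition versus DMSO-treated wells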
Method: as §9, §10, §11

EGFR = EGFR (Homo sapiens, UniProt P00533); assay: EGFR kinase autophosphorylation assay (peptide phosphorylation, HTRF); assay type: biochemical; conditions: 0.8 nM EGFR, class by pIC50
Method: as §1, §2, §3, §4, §5, §6, §7, §8

Sequence of ErbB2 (P04626 23-1255): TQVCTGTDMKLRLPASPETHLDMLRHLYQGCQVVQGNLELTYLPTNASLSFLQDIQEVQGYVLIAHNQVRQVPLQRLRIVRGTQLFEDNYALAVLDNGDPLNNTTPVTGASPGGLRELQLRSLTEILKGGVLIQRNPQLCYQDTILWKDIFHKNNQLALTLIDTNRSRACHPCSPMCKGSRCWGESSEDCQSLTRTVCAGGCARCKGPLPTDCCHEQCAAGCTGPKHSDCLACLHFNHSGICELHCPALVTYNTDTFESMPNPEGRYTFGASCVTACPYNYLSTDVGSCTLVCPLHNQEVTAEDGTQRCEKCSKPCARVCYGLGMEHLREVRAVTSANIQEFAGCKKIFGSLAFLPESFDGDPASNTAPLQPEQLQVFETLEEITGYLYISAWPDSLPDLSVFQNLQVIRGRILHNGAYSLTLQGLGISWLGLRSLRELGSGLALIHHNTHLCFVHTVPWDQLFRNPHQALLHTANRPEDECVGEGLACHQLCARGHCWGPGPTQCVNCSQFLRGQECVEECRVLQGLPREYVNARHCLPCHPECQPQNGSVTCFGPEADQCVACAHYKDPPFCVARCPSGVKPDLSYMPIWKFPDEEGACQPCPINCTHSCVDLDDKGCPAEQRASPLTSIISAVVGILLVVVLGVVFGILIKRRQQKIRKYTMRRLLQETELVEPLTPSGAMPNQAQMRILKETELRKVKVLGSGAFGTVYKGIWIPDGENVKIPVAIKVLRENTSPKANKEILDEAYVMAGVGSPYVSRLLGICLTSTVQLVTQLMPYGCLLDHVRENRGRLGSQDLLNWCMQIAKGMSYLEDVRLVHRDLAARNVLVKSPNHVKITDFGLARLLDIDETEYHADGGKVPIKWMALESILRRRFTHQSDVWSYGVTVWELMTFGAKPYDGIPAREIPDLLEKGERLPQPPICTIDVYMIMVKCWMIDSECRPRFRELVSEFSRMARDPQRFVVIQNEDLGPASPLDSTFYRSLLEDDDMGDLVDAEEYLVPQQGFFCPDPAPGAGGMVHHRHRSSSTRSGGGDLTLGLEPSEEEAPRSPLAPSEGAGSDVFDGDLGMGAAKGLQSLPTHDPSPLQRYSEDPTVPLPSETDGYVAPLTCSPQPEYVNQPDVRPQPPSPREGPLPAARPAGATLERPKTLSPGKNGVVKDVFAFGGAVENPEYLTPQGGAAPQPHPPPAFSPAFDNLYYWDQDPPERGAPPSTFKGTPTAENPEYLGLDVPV
Sequence of B-Raf (P15056 whole entry): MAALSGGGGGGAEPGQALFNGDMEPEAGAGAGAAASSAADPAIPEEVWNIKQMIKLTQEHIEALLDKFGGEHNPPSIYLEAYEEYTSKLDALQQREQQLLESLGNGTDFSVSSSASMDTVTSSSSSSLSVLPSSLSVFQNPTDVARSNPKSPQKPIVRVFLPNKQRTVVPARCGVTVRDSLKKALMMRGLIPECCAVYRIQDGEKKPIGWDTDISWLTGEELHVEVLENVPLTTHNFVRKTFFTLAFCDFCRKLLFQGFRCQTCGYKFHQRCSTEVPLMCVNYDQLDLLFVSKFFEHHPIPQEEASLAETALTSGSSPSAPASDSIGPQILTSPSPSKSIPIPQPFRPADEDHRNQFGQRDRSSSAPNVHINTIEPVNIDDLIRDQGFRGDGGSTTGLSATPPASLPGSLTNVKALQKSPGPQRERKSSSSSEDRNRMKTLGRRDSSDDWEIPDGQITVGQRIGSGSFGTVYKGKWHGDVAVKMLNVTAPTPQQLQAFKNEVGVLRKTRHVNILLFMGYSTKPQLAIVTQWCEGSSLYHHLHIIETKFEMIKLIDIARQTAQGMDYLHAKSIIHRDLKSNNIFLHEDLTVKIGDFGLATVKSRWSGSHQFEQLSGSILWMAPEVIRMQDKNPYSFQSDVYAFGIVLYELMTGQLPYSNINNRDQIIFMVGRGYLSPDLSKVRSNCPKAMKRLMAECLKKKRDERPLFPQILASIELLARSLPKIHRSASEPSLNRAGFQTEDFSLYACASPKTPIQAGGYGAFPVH
Sequence of EGFR (P00533 25-1210): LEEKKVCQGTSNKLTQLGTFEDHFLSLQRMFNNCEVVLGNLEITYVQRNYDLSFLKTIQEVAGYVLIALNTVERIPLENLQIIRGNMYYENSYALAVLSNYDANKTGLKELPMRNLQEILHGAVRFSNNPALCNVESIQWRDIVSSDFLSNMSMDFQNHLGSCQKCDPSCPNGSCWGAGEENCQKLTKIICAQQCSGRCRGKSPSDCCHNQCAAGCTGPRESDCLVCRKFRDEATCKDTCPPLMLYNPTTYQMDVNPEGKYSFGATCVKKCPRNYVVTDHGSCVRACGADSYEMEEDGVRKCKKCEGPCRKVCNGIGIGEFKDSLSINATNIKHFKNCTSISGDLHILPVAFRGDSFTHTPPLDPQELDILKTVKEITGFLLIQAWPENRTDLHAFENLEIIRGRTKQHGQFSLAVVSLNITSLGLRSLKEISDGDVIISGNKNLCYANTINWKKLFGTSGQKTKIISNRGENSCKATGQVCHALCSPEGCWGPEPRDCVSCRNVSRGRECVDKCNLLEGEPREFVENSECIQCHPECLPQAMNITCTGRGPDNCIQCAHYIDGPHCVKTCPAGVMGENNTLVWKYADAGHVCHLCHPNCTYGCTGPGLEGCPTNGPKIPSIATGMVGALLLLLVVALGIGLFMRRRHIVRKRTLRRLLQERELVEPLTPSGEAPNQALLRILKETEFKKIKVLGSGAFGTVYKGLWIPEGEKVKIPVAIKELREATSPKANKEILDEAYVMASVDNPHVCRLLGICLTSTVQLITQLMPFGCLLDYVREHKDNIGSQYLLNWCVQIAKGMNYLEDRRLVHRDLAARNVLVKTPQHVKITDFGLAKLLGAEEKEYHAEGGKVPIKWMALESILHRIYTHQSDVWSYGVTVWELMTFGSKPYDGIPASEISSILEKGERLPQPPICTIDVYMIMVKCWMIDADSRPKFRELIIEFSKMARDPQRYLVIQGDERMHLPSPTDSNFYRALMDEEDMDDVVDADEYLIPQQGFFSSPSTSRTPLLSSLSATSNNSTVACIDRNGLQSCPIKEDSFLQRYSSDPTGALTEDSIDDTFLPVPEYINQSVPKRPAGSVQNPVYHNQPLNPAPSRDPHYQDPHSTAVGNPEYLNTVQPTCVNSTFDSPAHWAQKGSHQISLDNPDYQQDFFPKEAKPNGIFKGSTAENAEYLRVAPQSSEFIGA

Row | Structure (SMILES) | IC50 (Colo205 tumor cells) [nM] | IC50 (SK-MEL-28 tumor cells) [nM] | IC50 (A375P tumor cells) [nM] | IC50 (B-Raf) [nM] | IC50 (HT-29 tumor cells) [nM] | IC50 (ErbB2) [nM] | IC50 (SK-MEL-3 tumor cells) [nM] | IC50 (EGFR) [nM]
1 | CCNc1nc(-c2cccc(OC)c2)c(-c2ccnc(Nc3ccc(OCCN4CCCC4)c(F)c3)n2)s1 [Example 72, 4-{2-(Ethylamino)-4-[3-(methyloxy)phenyl]-1,3-thiazol-5-yl}-N-(3-fluoro-4-{[2-(1-pyrrolidinyl)ethyl]oxy}phenyl)-2-pyrimidinamine] | < 500 | 500 to 5000 | < 500 | < 100 | < 500 | < 100 | < 500 | < 100
2 | CCc1nc(-c2cc(O)cc(OC)c2)c(-c2ccnc(Nc3ccc(OC4CCN(CCS(C)(=O)=O)CC4)c(F)c3)n2)s1 [Example 74, trifluoroacetic acid salt] | < 500 | < 500 | < 500 | < 100 | < 500 | > 1000 | < 500 | > 1000
3 | CCNc1nc(-c2cccc(OC)c2)c(-c2ccnc(Nc3ccc(OCCN(C)C)c(C)c3)n2)s1 [Example 77, N-(4-{[2-(Dimethylamino)ethyl]oxy}-3-methylphenyl)-4-{2-(ethylamino)-4-[3-(methyloxy)phenyl]-1,3-thiazol-5-yl}-2-pyrimidinamine] | < 500 | 500 to 5000 | < 500 | < 100 | < 500 | < 100 | < 500 | < 100
4 | CCNc1nc(-c2cc(OC)cc(OC)c2)c(-c2ccnc(Nc3ccc(OC4CCN(CCS(C)(=O)=O)CC4)c(F)c3)n2)o1 [Example 82] | < 500 | 500 to 5000 | > 5000 | < 100 | < 500 | > 1000 | < 500 | > 1000
5 | CCNc1nc(-c2cc(OC)cc(OC)c2)c(-c2ccnc(Nc3ccc(OC4CCN(CCS(C)(=O)=O)CC4)c(C)c3)n2)o1 [Example 87] | 500 to 5000 | 500 to 5000 | 500 to 5000 | < 100 | 500 to 5000 | > 1000 | 500 to 5000 | > 1000
6 | CCNc1nc(-c2cc(OC)cc(OC)c2)c(-c2ccnc(Nc3cc(F)c(N4CCN(CCS(C)(=O)=O)CC4)c(F)c3)n2)o1 [Example 91] | < 500 | 500 to 5000 | 500 to 5000 | < 100 | 500 to 5000 | > 1000 | < 500 | > 1000
7 | Fc1cc(Nc2nccc(-c3sc(N4CCCC4)nc3-c3cccc(Cl)c3)n2)ccc1OCCN1CCCC1 [Example 103] | 500 to 5000 | 500 to 5000 | 500 to 5000 | < 100 | < 500 | < 100 | < 500 | 100 to 1000
8 | CCc1nc(-c2cc(C)cc(OC)c2)c(-c2ccnc(Nc3ccc(OCCO)c(C#N)c3)n2)s1 [Example 107] | < 500 | 500 to 5000 | 500 to 5000 | < 100 | < 500 | > 1000 | < 500 | > 1000
9 | CCNc1nc(-c2cc(OC)cc(OC)c2)c(-c2ccnc(Nc3ccc(N4CCOCC4)c(F)c3)n2)o1 [Example 118] | 500 to 5000 | 500 to 5000 | 500 to 5000 | < 100 | 500 to 5000 | > 1000 | 500 to 5000 | > 1000
10 | CCNc1nc(-c2cc(OC)cc(OC)c2)c(-c2ccnc(Nc3ccc(OC4CCN(CCO)CC4)c(F)c3)n2)o1 [Example 124] | 500 to 5000 | 500 to 5000 | 500 to 5000 | < 100 | < 500 | > 1000 | < 500 | > 1000
